According to patent US11744824B2, “2-amino-3-carbonyl imidazopyridine and pyrazolopyridine compounds” (1ST Biotherapeutics, Inc., priority 2020, dated 2023):

Experiments:
[1] = target: GST-tagged recombinant human RIP2 (Homo sapiens (Human), UniProt O43353); test: RIP2 Kinase Assay (ADP-Glo); format: biochemical; settings: in vitro kinase activity, ATP 25 μM
[2] = target: His-tagged recombinant human ABL1 (Homo sapiens (Human), UniProt P00519); test: c-Abl Kinase Assay (ADP-Glo); format: biochemical; settings: in vitro kinase activity, ATP 25 μM
Chain of His-tagged recombinant human ABL1 (P00519 whole entry): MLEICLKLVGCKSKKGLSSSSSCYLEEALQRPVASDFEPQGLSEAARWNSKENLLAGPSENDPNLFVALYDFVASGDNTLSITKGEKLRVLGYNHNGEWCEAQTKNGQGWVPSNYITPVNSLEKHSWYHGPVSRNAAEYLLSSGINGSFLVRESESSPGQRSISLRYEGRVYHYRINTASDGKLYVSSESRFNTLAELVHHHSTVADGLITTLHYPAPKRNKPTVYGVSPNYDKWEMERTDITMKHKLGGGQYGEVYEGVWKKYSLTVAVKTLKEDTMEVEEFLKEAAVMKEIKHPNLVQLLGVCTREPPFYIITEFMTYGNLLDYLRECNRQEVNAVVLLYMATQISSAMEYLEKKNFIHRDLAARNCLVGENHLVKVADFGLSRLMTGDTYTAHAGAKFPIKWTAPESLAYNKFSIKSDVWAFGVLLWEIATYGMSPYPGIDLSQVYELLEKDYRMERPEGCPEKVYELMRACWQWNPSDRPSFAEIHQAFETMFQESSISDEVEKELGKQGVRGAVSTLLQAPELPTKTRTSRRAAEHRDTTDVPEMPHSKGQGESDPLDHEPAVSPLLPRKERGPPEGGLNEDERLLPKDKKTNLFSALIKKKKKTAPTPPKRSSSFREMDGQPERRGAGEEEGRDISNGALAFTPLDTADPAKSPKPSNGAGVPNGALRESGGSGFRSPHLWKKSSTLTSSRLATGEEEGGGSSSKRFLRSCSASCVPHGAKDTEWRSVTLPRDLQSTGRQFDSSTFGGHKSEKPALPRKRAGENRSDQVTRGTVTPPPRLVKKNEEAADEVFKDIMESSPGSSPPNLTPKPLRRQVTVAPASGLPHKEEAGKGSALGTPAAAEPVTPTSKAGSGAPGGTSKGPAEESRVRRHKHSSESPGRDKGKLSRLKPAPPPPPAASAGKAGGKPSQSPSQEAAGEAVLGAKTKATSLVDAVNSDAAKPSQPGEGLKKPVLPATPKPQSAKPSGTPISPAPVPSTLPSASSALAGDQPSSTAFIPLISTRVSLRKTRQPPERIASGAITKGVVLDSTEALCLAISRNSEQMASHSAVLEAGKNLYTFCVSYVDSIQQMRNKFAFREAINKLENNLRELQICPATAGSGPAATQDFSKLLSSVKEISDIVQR
Procedure: ADP-Glo assay kit was purchased from Promega. Magnesium chloride (MgCl2), bovine serum albumin (BSA), ethylene glycol-bis(β-aminoethyl ether)-N,N,N′,N′-tetraacetic acid (EGTA), tween-20, 1,4-dithiothreitol (DTT) and dimethyl sulfoxide (DMSO) were purchased from Sigma-Aldrich. HEPES buffer was purchased from Gibco. ABL1 kinase and Abltide were purchased from Signalchem.
c-Abl kinase activity was measured by Promega's ADP-Glo™ Assay. In this assay, His-tagged recombinant human ABL1 (0.25 ng/μl) is incubated with 5 μL of compounds (0.5% DMSO), 5 μL of Abltide (0.01 μg/μl) and 5 μL of ATP (25 μM) in buffer (50 mM HEPES, 7.5; 10 mM MgCl2; 1 mM EGTA; 0.05% BSA; 0.01% Tween-20; 2 mM DTT). The assay was started by incubating the reaction mixture in a 96-well plate at 30° C. for 30 min. After the incubation, 25 μL ADP-Glo reagent was added and the reaction was incubated at room temperature for 40-min to stop the reaction and degrade residual ATP. The ADP product was then converted to ATP by adding 50 μL per well of detection reagent. Luminescence was detected after 30-min room temperature incubation with the Molecular device I3X plate reader. The IC50 values were calculated from a series of percent inhibition values determined at a range of inhibitor concentration using software routines as implemented in the GraphPad Prism 7 software and Sigma Plot 13.0.

[3] = test system: IL-6 secretion in BV-2 mouse microglia cells; test: IL-6 Secretion in BV-2 Cell (L18-MDP stimulated, ELISA); format: cell-based; settings: BV-2 cells, 10 μg/ml L18-MDP, 24 hr
Procedure: IL-6 Secretion in BV-2 Cell
BV-2 mouse microglia cells were kindly provided from Dr. Bae in Korea Institute of Science and Technology (KIST). BV-2 cells were thawed and suspended in Dulbecco's modified eagle medium (DMEM) supplemented with 10% fetal bovine serum (FBS) and 1% Penicillin/Streptomycin. Cells were seeded into 96 well plates at 2×10^4 cells/well and allowed to attach for 24 hr. On the day of the experiment, various concentration of FB compounds was treated, and cells were stimulated with 10 μg/ml L18-MDP. After 24 hr incubation, supernatant was collected for cytokine assay.
Absorbance at 450 nm was measured using SpectraMax i3X microplate reader (Molecular Device). Values of media-only wells were subtracted and % inhibition for each compound concentration relative to the DMSO/L18-MDP-treated controls (100%) was calculated. The IC50 values were calculated from a series of percent activity values using software as implemented in the GraphPad Prism 7 software and SigmaPlot 13.0.

Chain of GST-tagged recombinant human RIP2 (O43353 whole entry): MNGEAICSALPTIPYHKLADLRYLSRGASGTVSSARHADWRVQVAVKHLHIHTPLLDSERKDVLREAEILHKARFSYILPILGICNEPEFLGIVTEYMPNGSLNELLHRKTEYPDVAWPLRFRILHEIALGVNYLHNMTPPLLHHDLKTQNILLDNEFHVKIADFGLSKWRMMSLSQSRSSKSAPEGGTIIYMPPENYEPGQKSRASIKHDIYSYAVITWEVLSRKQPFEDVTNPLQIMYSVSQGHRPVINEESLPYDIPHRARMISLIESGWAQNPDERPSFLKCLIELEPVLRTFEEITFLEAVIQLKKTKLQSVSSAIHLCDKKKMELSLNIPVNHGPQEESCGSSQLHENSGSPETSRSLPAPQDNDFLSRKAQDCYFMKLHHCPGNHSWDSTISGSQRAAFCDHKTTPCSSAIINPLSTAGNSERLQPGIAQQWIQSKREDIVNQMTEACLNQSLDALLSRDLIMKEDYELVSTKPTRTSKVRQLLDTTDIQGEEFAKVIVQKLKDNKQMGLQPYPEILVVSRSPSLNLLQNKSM

SMILES	IC50 [1]	IC50 [2]	IC50 [3]
Cc1c(F)cccc1-c1ccc2nc(N)c(C(=O)[C@@H]3C[C@@H]3F)n2c1 [Example 5]	1 to 100 nM	1 to 100 nM	501 to 1000 nM
Cc1c(-c2ccc3nc(N)c(C(=O)[C@@H]4C[C@@H]4F)n3c2)cnc2[nH]ccc12 [Example 40]	1 to 100 nM	1 to 100 nM	101 to 500 nM
Nc1nc2ccc(-c3ccc4[nH]ccc4c3)cn2c1C(=O)[C@@H]1C[C@@H]1F [Example 51]	1 to 100 nM	1 to 100 nM	101 to 500 nM
Nc1nc2ccc(-c3cccc4[nH]ccc34)cn2c1C(=O)[C@@H]1C[C@@H]1F [Example 57]	1 to 100 nM	1 to 100 nM	101 to 500 nM
Cc1c(F)cc2[nH]ncc2c1-c1ccc2nc(N)c(C(=O)[C@@H]3C[C@@H]3F)n2c1 [Example 60]	1 to 100 nM	101 to 500 nM	1 to 100 nM
Cc1c(-c2ccc3nc(N)c(C(=O)[C@@H]4C[C@@H]4F)n3c2)ccc2[nH]ccc12 [Example 89, (2-amino-6-(4-methyl-1H-indol-5-yl)imidazo[1,2-a]pyridin-3-yl)((1S,2S)-2-fluorocyclopropyl)methanone]	1 to 100 nM	1 to 100 nM	101 to 500 nM
Nc1nc2ccc(-c3ccnc4[nH]ccc34)cn2c1C(=O)[C@@H]1C[C@@H]1F [Example 104]	1 to 100 nM	1 to 100 nM	101 to 500 nM
Nc1nc2ccc(-c3c[nH]c4ccccc34)cn2c1C(=O)[C@@H]1C[C@@H]1F [Example 105]	1 to 100 nM	1 to 100 nM	101 to 500 nM
Nc1nc2ccc(-c3c[nH]c4ncccc34)cn2c1C(=O)[C@@H]1C[C@@H]1F [Example 110]	1 to 100 nM		501 to 1000 nM
Nc1nc2ccc(-c3cc(F)cc4[nH]ccc34)cn2c1C(=O)[C@@H]1C[C@@H]1F [Example 113]	1 to 100 nM	1 to 100 nM	101 to 500 nM
Cc1c(F)cc2[nH]ccc2c1-c1ccc2nc(N)c(C(=O)[C@@H]3C[C@@H]3F)n2c1 [Example 114]	1 to 100 nM	1 to 100 nM	101 to 500 nM
Nc1nc2ccc(-c3ccnc4ccccc34)cn2c1C(=O)[C@@H]1C[C@@H]1F [Example 115]	1 to 100 nM		101 to 500 nM
Nc1nn2ccc(-c3cccc4[nH]ccc34)cc2c1C(=O)C1CC1 [Example 152]	1 to 100 nM		101 to 500 nM
Cc1c(F)cc2[nH]ncc2c1-c1ccn2nc(N)c(C(=O)C3CC3)c2c1 [Example 153, (2-amino-5-(6-fluoro-5-methyl-1H-indazol-4-yl)pyrazolo[1,5-a]pyridin-3-yl)(cyclopropyl)methanone]	1 to 100 nM		501 to 1000 nM
Cc1c(F)cccc1-c1ccn2nc(N)c(C(=O)C3CC3)c2c1 [Example 154]	1 to 100 nM		> 1000 nM
